Measured values: patent US12109207B2, “Methods of using 4(1H)-quinolone derivatives” (Academia Sinica, priority 2019, dated 2024)
Like-named read-outs stand apart in the source and are kept apart here.

Assays:
P-gp = molecular target: T1, P-gp (Homo sapiens, UniProt P08183); test: Rhodamine efflux assay; type: cell-based; settings: KBtax cells
T1 construct: KBtax, KBvin, and CEM/VBL cancer cell lines, which overexpress P-gp; endogenous in cells; host or cells: KBtax cells (paclitaxel-selected subline of human KB)
Description: KBtax cells (2.5×10^5/test) were collected and held on ice for 1 h in cold medium with […] rhodamine. Then, the cells were resuspended in medium warmed to 37° C. with one of the indicated compounds and incubated for 1 h in a water bath at the same temperature for efflux determination. The fluorescence intensities were quantified by FACSCanto flow cytometry.

Purified porcine tubulin = molecular target: T2, Purified porcine tubulin (Sus scrofa, UniProt P02554); test: In vitro tubulin polymerization assay; type: biochemical; settings: 5 μM, A340 every min for 1 h at 37° C.
T2 construct: purchased Cytoskeleton
Description: Reagents from a Tubulin Polymerization Assay kit (Cytoskeleton) were used according to the manufacturer's instructions. Purified porcine tubulin (4 mg/mL; >99% purity) in G-PEM buffer (80 mM PIPES, 2 mM MgCl2, 0.5 mM EGTA, 1 mM GTP, 15% glycerol, pH 6.9) was mixed with each test compound in the wells of a 96-well plate. Then, the A340 value was recorded each minute for 1 h at 37° C. with the VersaMax microplate reader.

H1975 cells = test: Cell cytotoxicity assay (MTS), H1975; type: cell-based, human; settings: Homo sapiens, read-out: IC50
Description: (§1) Cells were seeded into the wells of 96-well plates (2000 cells/well). After an overnight culture, the cells were treated with different concentrations of a compound for 72 h. The CellTiter 96 AQueous one-solution cell proliferation assay (MTS) reagent was used to determine cytotoxicity. After treatment with a compound, 20 μL of the MTS reagent was added to each well and the plates were incubated at 37° C. for 1-4 h. Next, the absorbance at 490 nm of the culture medium in each well was determined using a VersaMax microplate reader (Molecular Devices).

KBtax xenograft tumors = test: KBtax xenograft tumor model; type: in vivo, BALB/c nude mice
Description: (§2) Using the H1975, MDA-MB-231, and KBtax xenograft models, tumors were established after inoculation into the right flanks of 6-week-old BALB/c nude mice (NARLabs, Taipei, Taiwan). After establishment of the tumors, vehicle and test compounds, which had been dissolved in DMSO, were each injected intraperitoneally into a separate group of animals three times per week. The body mass of each animal and tumor volumes were measured before each drug delivery. Tumor volume was calculated as 0.5W^2L (with W being the width of the smaller diameter and L being the length of the larger diameter). The animal experiment was carried out in accordance with the procedures and guidelines of the Institutional Animal Care and Use Committee, Institute of Biomedical Sciences, Academia Sinica.

BT-549 = test: Cell cytotoxicity assay (MTS), BT-549; type: cell-based; settings: Homo sapiens, BT-549, 72 h
Description: as §1

KB = test: Cell cytotoxicity assay (MTS), KB; type: cell-based; settings: Homo sapiens
Description: as §1

CCRF-CEM = test: Cell cytotoxicity assay (MTS), CCRF-CEM; type: cell-based; settings: Homo sapiens
Description: as §1

82T = test: Cell cytotoxicity assay (MTS), 82T; type: cell-based; settings: Homo sapiens, 72 h
Description: as §1

H1975 xenograft tumor = H1975 xenograft tumor model; type: in vivo, BALB/c nude mice; settings: day 21
Description: as §2

HDQP1 = test: Cell cytotoxicity assay, HDQP1; type: cell-based; settings: Homo sapiens, HDQ-P1; TNBC cell line HDQP1
Description: as §1

HDQP1/TAX = test: Cell cytotoxicity assay, HDQP1/TAX; type: cell-based, human
Description: as §1

Hs578t = test: Cell cytotoxicity assay (MTS), Hs578t; type: cell-based; settings: Homo sapiens, Hs-578T, 72 h
Description: as §1

KBtax = test: Cell cytotoxicity assay (MTS), KBtax; type: cell-based, human; settings: for IC50: Homo sapiens, KBtax, P-gp overexpressing, paclitaxel-selected KB subline
Description: as §1

[1] = Body mass and serum biochemical markers, KBtax xenograft mice; type: in vivo, BALB/c nude mice
Description: The body mass of each animal and tumor volumes were measured before each drug delivery. Tumor volume was calculated as 0.5W^2L (with W being the width of the smaller diameter and L being the length of the larger diameter). The animal experiment was carried out in accordance with the procedures and guidelines of the Institutional Animal Care and Use Committee, Institute of Biomedical Sciences, Academia Sinica.

KBvin = test: Cell cytotoxicity assay (MTS), KBvin; type: cell-based, human; settings: for IC50: Homo sapiens, KBvin, P-gp overexpressing, vincristine-selected KB subline; for RF, resistance factor (IC50 in resistant cell line/IC50 in parent cell line): KBvin vs KB
Description: as §1

CEM/VBL = test: Cell cytotoxicity assay (MTS), CEM/VBL; type: cell-based, human; settings: for RF, resistance factor (IC50 in resistant cell line/IC50 in parent cell line): CEM/VBL vs CCRF-CEM; for IC50: Homo sapiens, CEM/VBL, P-gp overexpressing, vinblastine-selected CCRF-CEM subline
Description: as §1

P-gp expression = P-gp expression immunoblotting in KBtax cells; type: cell-based, human; settings: 24 h
Description: The cells were harvested and lysed in RIPA buffer (20 mM Tris-HCl, 150 mM NaCl, 1 mM Na2EDTA, 1% sodium deoxycholate, 1% IGEPAL CA-630, 0.1% SDS, pH 7.5) with protease inhibitors (Roche). Protein concentration was measured by the BCA assay. For immunoprecipitation, protein extracts were incubated with mag-beads-AS1712 or mag-beads-control at 4° C. overnight and then washed five times with PBS before immunoblotting. For immunoblotting, equivalent amounts of denatured proteins were separated through SDS-PAGE gels and then transferred to PVDF membranes (Millipore), which were each blocked with 5% nonfat milk in PBS and 0.1% Tween-20 (Sigma Aldrich) for 1 h. Then each membrane was incubated with a primary antibody overnight at 4° C., followed by incubation with a horseradish peroxidase conjugated secondary antibody for 1 h at room temperature. The signal was visualized by enhanced chemiluminescence detection, and images were acquired using a BioSpectrum Imaging System (UVP).

37T = test: Cell cytotoxicity assay (MTS), 37T; type: cell-based; settings: Homo sapiens, 72 h
Description: as §1

[2] = Body mass and serum biochemical markers, H1975 xenograft mice; type: in vivo, BALB/c nude mice; settings: 4 or 8 mg/kg i.p. three times a week, end of experiment
Description: as §2

[3] = Body mass, MDA-MB-231 xenograft mice; type: in vivo, BALB/c nude mice; settings: 4 or 8 mg/kg i.p. three times a week, 35 days
Description: as §2

[4] = tested on: MDA-MB-231 xenograft tumors; test: MDA-MB-231 xenograft tumor model; type: in vivo, BALB/c nude mice; settings: day 35
Description: as §2

TNBC cell lines = test: Cytotoxicity against triple-negative breast cancer cell lines; type: cell-based; settings: Homo sapiens; BT-549, Hs578t, MDA-MB-231, 37T, 82T; 72 h MTS; read-out: IC50 values in different TNBC cell lines
Description: as §1

[5] = tested on: human fibroblast (HFB) cells; test: Cell cytotoxicity assay (MTS), human fibroblast; type: cell-based; settings: normal cell line HFB
Description: as §1

MDA-MB-231 = test: Cell cytotoxicity assay (MTS), MDA-MB-231; type: cell-based; settings: Homo sapiens, MDA-MB-231, 72 h
Description: as §1

[6] = molecular target: colchicine site of tubulin (Sus scrofa, UniProt P02554); test: Colchicine competition assay; type: binding; settings: 37° C. for 1 h
Description: Tubulin ([…]) and colchicine ([…]) were incubated with the various concentrations of AS1712, nocodazole, or vincristine in 80 mM PIPES, 2 mM MgCl2, 0.5 mM EGTA, pH 6.9 at 37° C. for 1 h. Fluorescence intensities (excitation and emission wavelengths at 365 and 435 nm, respectively) were recorded using an Infinite M200 plate reader (Tecan). Fluorescence values were normalized to the DMSO control.

tubulin = tubulin (Sus scrofa, UniProt P02554); test: Limited proteolysis assay; type: binding; settings: 100 μM, 30 min at 30° C.
Description: Tubulin (1 mg/mL) was incubated individually with a test compound for 30 min at 30° C. in 0.1 M morpholino ethanesulfonic acid, 1 mM MgCl2, 1 mM EGTA, pH 6.9, and then 25 μg/mL trypsin (TPCK-treated, Sigma Aldrich; 1:40 [w/w] trypsin/tubulin) was added to the solution for a 10-min digestion at 4° C. Samples were electrophoresed through a 15% SDS-PAGE gel and stained with Coomassie brilliant blue R250. The images were scanned and quantified using a BioSpectrum Imaging System (UVP).

[7] = 4 mg/kg intraperitoneally three times a week
[8] = 8 mg/kg intraperitoneally three times a week
[9] = end of experiment, paclitaxel 15 mg/kg, RJ-LC-15-8 8 mg/kg, mean ± SEM

For `CCOC(=O)c1ccc2[nH]c(-c3cccc(F)c3)cc(=O)c2c1` [RJ-LC-15-8, Ethyl 2-(3-fluorophenyl)-4-oxo-1,4-dihydroquinoline-6-carboxylate], the P-gp pump activity (P-gp) was “did not directly inhibit”, the tubulin polymerization (Purified porcine tubulin) was “direct inhibition” and the IC50 (H1975 cells; NCI-H1975, 72 h, H1975 cells, 72 h, MTS) was 24 nM. The IC50 (H1975 cells; NCI-H1975, Table 8, cell line not given, values match H1975) was 24 ± 1 nM, the “TUNEL staining of the tumor tissues” value (KBtax xenograft tumors; 8 mg/kg, 21 days) was “induced apoptosis” and the average tumor size (KBtax xenograft tumors; after 21 days, i.p. three times a week, paclitaxel 15 mg/kg, RJ-LC-15-8 8 mg/kg) was 528.4±101.6 mm^3. It also gave an IC50 (BT-549) of 21 ± 1.14 nM, an IC50 (KB) of 34 ± 0.39 nM and an IC50 (CCRF-CEM) of 20 ± 1.71 nM. It also gave an IC50 (82T) of 23 ± 1.27 nM, an average tumor size (H1975 xenograft tumor; [7]) of 1333±121.9 mm^3 and an average tumor size (H1975 xenograft tumor; [8]) of 972.5±52.3 mm^3. The IC50 (HDQP1) was 39 ± 0.49 nM, the “RF, resistance factor (IC50 in resistant cell line/IC50 in parent cell line)” value (“RF, resistance factor” for short) (HDQP1/TAX; HDQP1/TAX vs HDQP1) was 1.02 and the IC50 (HDQP1/TAX; Homo sapiens, HDQ-P1, Paclitaxel-resistant subline) was 40 ± 3.26 nM. The IC50 (Hs578t) was 34 ± 4.71 nM, the IC50 (KBtax) was 30 ± 1.35 nM and the “RF, resistance factor” value (KBtax; KBtax vs KB) was 0.88. For the same compound, the “Body mass and serum biochemical markers for liver and kidney functions” value ([1]; 8 mg/kg, end of the experiment) was “not negatively affected”, the “ALT (IU/L)” value [1, 9] was 64 ± 10.8 IU/L and the “AST(IU/L)” value [1, 9] was 120.7 ± 27.5 IU/L. The “BUN” value [1, 9] was 18.2 ± 1 mg/dL, the “Cre” value [1, 9] was 0.26 ± 0.04 mg/dL and the IC50 (KBvin) was 35 ± 0.88 nM. For the same compound, the “RF, resistance factor” value (KBvin) was 1, the “RF, resistance factor” value (CEM/VBL) was 0.8 and the IC50 (CEM/VBL) was 16 ± 0.52 nM. The P-gp expression (P-gp expression) was “did not affect”, the IC50 (37T) was 22 ± 0.61 nM and the body mass [2] was “not affected”. For the same compound, the body mass [3] was “did not affect”, the average tumor size [4, 7] was 105±9.4 mm^3 and the average tumor size [4, 8] was 73.6±8.2 mm^3. The IC50 (TNBC cell lines) was 21 to 35 nM, the IC50 [5] was over 10000 nM and the IC50 (MDA-MB-231) was 35 ± 1.45 nM.
For `COC(=O)Nc1nc2ccc(C(=O)c3cccs3)cc2[nH]1` [nocodazole], the tubulin polymerization (Purified porcine tubulin) was “inhibit tubulin polymerization”, the colchicine fluorescence [6] was “decreased the colchicine fluorescence in a dose-dependent manner” and the “tryptic pattern after limited trypsin digestion” value (tubulin) was “produced an increased amount of βcol”.
With `CC[C@]1(O)C[C@H]2CN(CCc3c([nH]c4ccccc34)[C@@](C(=O)OC)(c3cc4c(cc3OC)N(C=O)[C@H]3[C@@](O)(C(=O)OC)[C@H](OC(C)=O)[C@]5(CC)C=CCN6CC[C@]43[C@@H]65)C2)C1` [Vincristine, vincristine] the tubulin polymerization (Purified porcine tubulin) was “inhibit tubulin polymerization”, the IC50 (KB) was 5 ± 0.31 nM and the IC50 (CCRF-CEM) was 3 ± 0.04 nM. For the same compound, the colchicine fluorescence [6] was “did not”, the IC50 (KBtax) was 49 ± 2.96 nM and the IC50 (KBvin) was 817 ± 47.4 nM. The “RF, resistance factor” value (KBvin) was 163, the “tryptic pattern after limited trypsin digestion” value (tubulin) was “decreased the amount of the βcol, αN, and αC fragments” and the “RF, resistance factor” value (CEM/VBL) was 440. For the same compound, the IC50 (CEM/VBL) was 1320 ± 20.6 nM.
